{"source": "paper PMC10495264", "about": "(Nature Cell Biology, 2023)", "key": {"mTORC1 [1]": {"system": "mTORC1", "assay": "mTORC1 activity in HEK293FT cells (WT and knockout lines), phosphorylation of S6K, 4E-BP1, Grb10, TFEB by immunoblot", "type": "cell-based, human", "method": "Data represent the median fluorescence intensity of OPP Alexa Fluor 488; n = 6 biological replicates from two independent experiments. b,c,e,g,i,k,l, Data are the mean ± s.e.m. *P < 0.05, **P < 0.005, ***P < 0.0005. […] Source numerical data and unprocessed blots are provided. Source data\n(§1) Amino-acid-starvation experiments were carried out as described before[42],[43]. […] For the lipid depletion experiments, cells were cultured in medium containing 10% charcoal-stripped FBS (A3382101, Thermo Fisher Scientific), instead of full FBS, for 24 h before treatments with FASN inhibitors were performed. For FA supplementation, each FA was first conjugated to 10% FA-free BSA (fraction V; cat. no. 10735086001, Roche) for 1 h at 50 °C in a 50:50 volumetric ratio. The BSA-conjugated C16:0, C16:1, C18:1 and C18:2 FAs (100 μM) were then added to the media both 16 h previous to and at the start of the treatment with FASN inhibitors.\n(§2) For standard SDS–PAGE and immunoblotting experiments, cells from a well of a 12-well plate were lysed in 250 μl of ice-cold Triton lysis buffer (50 mM Tris pH 7.5, 1% Triton X-100, 150 mM NaCl, 50 mM NaF, 2 mM Na-vanadate and 0.011 g ml^−1 β-glycerophosphate) supplemented with 1×PhosSTOP phosphatase inhibitors (cat. no. 4906837001, Roche) and 1×cOmplete protease inhibitors (cat. no. 11836153001, Roche) for 10 min on ice. The samples were clarified by centrifugation (20,000g, 15 min, 4 °C) and the supernatants were boiled in 1×SDS sample buffer (5×SDS sample buffer: 350 mM Tris–HCl pH 6.8, 30% glycerol, 600 mM DTT, 12.8% SDS and 0.12% bromophenol blue). The band intensities were quantified using the ImageJ software."}, "mTORC2": {"system": "mTORC2", "assay": "mTORC2 activity in HEK293FT cells, p-AKT^S473/AKT immunoblot", "type": "cell-based, human", "method": "Phosphorylation of Ypk1 was used as the TORC2 readout. Phosphorylation of Snf1 was used as the AMPK activation readout. Total Snf1 was detected with an antibody to a histidine (His) stretch in Snf1. […] Source numerical data and unprocessed blots are provided. Source data\nas §1, §2"}, "mTORC1 [2]": {"system": "mTORC1", "assay": "mTORC1 activity in HEK293T cells (WT, AMPKα1/2 KO, DEPDC5 and RagA/B triple KO), p-S6K^T389/S6K immunoblot", "type": "cell-based, human", "method": "Source numerical data and unprocessed blots are provided. Source data\nas §2\nData in graphs are shown as the mean ± s.e.m. *P < 0.05, **P < 0.005, ***P < 0.0005. Source numerical data and unprocessed blots are provided. Source data"}, "mTORC1 [3]": {"system": "mTORC1", "assay": "mTORC1 activity in mouse embryonic fibroblasts (MEFs), p-S6K^T389/S6K immunoblot", "type": "cell-based", "details": "for p-S6K(T389)/S6K, Mean: ED Fig. 4e, relative to DMSO"}, "mTORC1 [4]": {"system": "mTORC1", "assay": "mTORC1 activity in U2OS cells, immunoblot", "type": "cell-based, human", "details": "Fasnall 25 μM 30 min; cerulenin 50 μM 2 or 4 h"}, "AMPK": {"system": "AMPK", "assay": "AMPK and ACC1 phosphorylation immunoblot", "type": "cell-based, human", "details": "relative to DMSO", "method": "as §2\n(§3) Data in graphs are shown as the mean ± s.e.m. *P < 0.05, **P < 0.005. Source numerical data and unprocessed blots are provided. Source data"}, "ERK1/2": {"system": "ERK1/2", "assay": "ERK1/2 phosphorylation immunoblot", "type": "cell-based, human", "details": "ED Fig. 5m; relative to DMSO", "method": "as §2, §3"}, "[5]": {"system": "mTOR lysosomal localization", "assay": "Co-localization of mTOR with LAMP2, confocal microscopy", "type": "cell-based, human", "details": "for mTOR/LAMP2 colocalization (Manders' coefficient), Mean: mean of pooled individual cells (ED Fig. 8d), DMSO mean 0.383214"}, "mTORC1 [6]": {"biological_target": "T1, mTORC1 (Homo sapiens, UniProt P42345)", "T1 construct": "endogenous mTORC1 complexes were purified from HEK293FT cells; endogenous in cells; host or cells: HEK293FT (immunoprecipitation of endogenous mTOR); the 4E-BP1 substrate was made in E. coli BL21 RP", "assay": "mTORC1 complex stability/composition, mTOR co-immunoprecipitation of Raptor and mLST8", "details": "cells treated with cerulenin (4 h)", "method": "For the mammalian endogenous protein co-immunoprecipitation experiments, cells of a near-confluent 10-cm dish were lysed in CHAPS IP buffer (50 mM Tris pH 7.5, 0.3% CHAPS detergent, 150 mM NaCl, 50 mM NaF, 2 mM Na-vanadate and 0.011 g ml^−1 β-glycerophosphate) supplemented with 1×PhosSTOP phosphatase inhibitors and 1×EDTA-free cOmplete protease inhibitors (11873580001, Roche) for 10 min on ice. The samples were clarified by centrifugation (20,000g, 15 min, 4 °C) and the supernatants were subjected to immunoprecipitation by the addition of 3 μl of each antibody, incubation at 4 °C with rotation for 3 h, followed by incubation (4 °C with rotation) with 30 μl of a pre-washed Protein A agarose bead slurry (cat. no. 11134515001, Roche) for an additional hour. The beads were then washed four times with CHAPS IP wash buffer (50 mM Tris pH 7.5, 0.3% CHAPS detergent, 150 mM NaCl and 50 mM NaF) and boiled in 1×SDS loading buffer. A portion of the samples was kept aside as the input before the addition of antibodies. The samples were analysed by SDS–PAGE and the presence of co-immunoprecipitated proteins was detected by immunoblotting with the appropriate specific antibodies.\nTo test whether Mal-CoA influences mTORC1 complex stability/composition, 1 mM Mal-CoA lithium salt solution was added to the lysates before the immunoprecipitation of mTOR, as described earlier. […]"}, "[7]": {"details": "Fasnall 25 μM 30 min, cerulenin 50 μM 4 h"}}, "note": "Values joined by “and” are separate entries in the source; they are usually repeats but may differ in a detail not shown here. Equal values may be shown once."}
{"smiles": "C/C=C/C/C=C/CCC(=O)[C@H]1O[C@H]1C(N)=O", "note": "[cerulenin]", "values": [{"measurement": "p-Grb10(S476)/Grb10, Mean", "setting": "mTORC1 [1]; ED Fig. 3e, relative to DMSO", "value": 0.6323}, {"measurement": "p-TFEB(S211)/TFEB, Mean", "setting": "mTORC1 [1]; ED Fig. 3f, relative to DMSO", "value": 0.6501}, {"measurement": "p-4E-BP1(T37/46)/4E-BP1, Mean", "setting": "mTORC1 [1]; ED Fig. 3g, relative to DMSO", "value": 0.1632}, {"measurement": "p-S6K(T389)/S6K, Mean", "setting": "mTORC1 [1]; ED Fig. 6b, relative to Luc", "value": 0.5038}, {"measurement": "mTORC1 activity towards Grb10 and TFEB (cerulenin: also 4E-BP1)", "setting": "mTORC1 [1]; [7]", "value": "downregulates"}, {"measurement": "mTORC1 activity (phosphorylation of S6K, 4E-BP1, Grb10 and TFEB)", "setting": "mTORC1 [1]; HEK293FT cells, Fasnall, cerulenin or siFASN", "value": "suppressed"}, {"measurement": "p-S6K(T389)/S6K, Mean", "setting": "mTORC1 [1]; HEK293FT, 50 μM cerulenin 2h, DMSO = 1, n = 8, Fig. 2i", "value": 0.7401}, {"measurement": "p-S6K(T389)/S6K, Mean", "setting": "mTORC1 [1]; HEK293FT, 50 μM cerulenin 4h, DMSO = 1, n = 8, Fig. 2i", "value": 0.4346}, {"measurement": "p-S6K(T389)/S6K, Mean", "setting": "mTORC1 [1]; TSC1 KO HEK293FT, cerulenin 50 μM, 4 h, respective DMSO = 1, n = 3, Fig. 5p", "value": 0.4527}, {"measurement": "p-S6K(T389)/S6K, Mean", "setting": "mTORC1 [1]; WT HEK293FT, cerulenin 50 μM, 4 h, respective DMSO = 1, n = 3, Fig. 5p", "value": 0.3623}, {"measurement": "phosphorylation of Akt (mTORC2 substrate)", "setting": "mTORC2; [7]", "value": "did not significantly alter"}, {"measurement": "p-AKT(S473)/AKT, Mean", "setting": "mTORC2; cerulenin 50 μM, 4 h, DMSO = 1, n = 3, Fig. 3d", "value": 0.8351}, {"measurement": "p-S6K(T389)/S6K, Mean", "setting": "mTORC1 [2]; ED Fig. 7c, AMPKa1/2 KO, 2h, relative to AMPKa1/2 KO DMSO", "value": 0.7893}, {"measurement": "p-S6K(T389)/S6K, Mean", "setting": "mTORC1 [2]; ED Fig. 7c, AMPKa1/2 KO, 4h, relative to AMPKa1/2 KO DMSO", "value": 0.6235}, {"measurement": "p-S6K(T389)/S6K, Mean", "setting": "mTORC1 [2]; ED Fig. 7c, WT, 2h, relative to WT DMSO", "value": 0.7439}, {"measurement": "p-S6K(T389)/S6K, Mean", "setting": "mTORC1 [2]; ED Fig. 7c, WT, 4h, relative to WT DMSO", "value": 0.528}, {"measurement": "p-S6K(T389)/S6K, Mean", "setting": "mTORC1 [2]; ED Fig. 7h, DEPDC5+RagA/B KO, 2h, relative to DEPDC5+RagA/B KO DMSO", "value": 0.6252}, {"measurement": "p-S6K(T389)/S6K, Mean", "setting": "mTORC1 [2]; ED Fig. 7h, DEPDC5+RagA/B KO, 4h, relative to DEPDC5+RagA/B KO DMSO", "value": 0.4969}, {"measurement": "p-S6K(T389)/S6K, Mean", "setting": "mTORC1 [2]; ED Fig. 7h, WT, 2h, relative to WT DMSO", "value": 0.7136}, {"measurement": "p-S6K(T389)/S6K, Mean", "setting": "mTORC1 [2]; ED Fig. 7h, WT, 4h, relative to WT DMSO", "value": 0.5404}, {"measurement": "p-S6K(T389)/S6K, Mean", "setting": "mTORC1 [3]; 2h", "value": 0.8743}, {"measurement": "p-S6K(T389)/S6K, Mean", "setting": "mTORC1 [3]; 4h", "value": 0.3448}, {"measurement": "mTORC1 activity in MEFs", "setting": "mTORC1 [3]; Fasnall 25 μM 30 min, cerulenin 50 μM 2 or 4 h", "value": "downregulates"}, {"measurement": "mTORC1 activity in U2OS", "setting": "mTORC1 [4]", "value": "downregulates"}, {"measurement": "p-AMPK(T172)/AMPK, Mean", "setting": "AMPK; ED Fig. 5e", "value": 0.8121}, {"measurement": "p-ACC1(S79)/ACC1, Mean", "setting": "AMPK; ED Fig. 5f", "value": 1.111}, {"measurement": "p-ERK(T202/Y204)/ERK, Mean", "setting": "ERK1/2", "value": 1.697}, {"measurement": "mTOR/LAMP2 colocalization (Manders' coefficient)", "setting": "[5]; Ceru 2h, Replicate 1, individual cells (ED Fig. 8d)", "value": "0.444 and 0.38 and 0.427 and 0.715 and 0.517 and 0.116 and 0.414 and 0.188 and 0.399 and 0.209 and 0.241 and 0.28 and 0.349 and 0.265 and 0.345 and 0.315 and 0.445 and 0.603 and 0.407 and 0.223 and 0.37 and 0.271 and 0.185"}, {"measurement": "mTOR/LAMP2 colocalization (Manders' coefficient)", "setting": "[5]; Ceru 2h, Replicate 3, individual cells (ED Fig. 8d)", "value": "0.327 and 0.378 and 0.177 and 0.225 and 0.217 and 0.171 and 0.169 and 0.316 and 0.307 and 0.469 and 0.189 and 0.266 and 0.237 and 0.271 and 0.179 and 0.175 and 0.173 and 0.339"}, {"measurement": "mTOR/LAMP2 colocalization (Manders' coefficient), Mean", "setting": "[5]; Ceru 2h", "value": 0.3276}, {"measurement": "mTOR/LAMP2 colocalization (Manders' coefficient)", "setting": "[5]; Ceru 4h, Replicate 1, individual cells (ED Fig. 8d)", "value": "0.295 and 0.311 and 0.327 and 0.333 and 0.217 and 0.408 and 0.17 and 0.428 and 0.395 and 0.227 and 0.135 and 0.322 and 0.371 and 0.272 and 0.219 and 0.26 and 0.303"}, {"measurement": "mTOR/LAMP2 colocalization (Manders' coefficient)", "setting": "[5]; Ceru 4h, Replicate 3, individual cells (ED Fig. 8d)", "value": "0.327 and 0.378 and 0.177 and 0.225 and 0.217 and 0.171 and 0.169 and 0.316 and 0.307 and 0.469 and 0.189 and 0.266 and 0.237 and 0.271 and 0.179 and 0.175 and 0.173 and 0.339"}, {"measurement": "mTOR/LAMP2 colocalization (Manders' coefficient), Mean", "setting": "[5]; Ceru 4h", "value": 0.2619}, {"measurement": "mTOR localization at lysosomes (co-localization with LAMP2)", "setting": "[5]; HEK293FT, 25 μM Fasnall or 50 μM cerulenin", "value": "significant dissociation"}, {"measurement": "stability and composition of mTORC1", "setting": "mTORC1 [6]", "value": "not affected"}]}
